The test deals with T1, PinD6 (PinDes6, delta-6 desaturase) (Phytophthora infestans, UniProt A0A833SQW7).
T1 construct: gene GN244_ATG16356

Structures are written as SMILES.

Turning to `CC/C=C\C/C=C\C/C=C\CCCCCCCC(=O)O` [ALA, α-linolenic acid], the “GC of fatty acid methyl esters from fed yeast” value is “WT-PinD6 can convert LA and ALA to GLA and SDA”.

As to `CCCCC/C=C\C/C=C\CCCCCCCC(=O)O` [LA], the “GC of fatty acid methyl esters from fed yeast” value is “WT-PinD6 can convert LA and ALA to GLA and SDA”.

These data come from PMC4951033, “Elevation of the Yields of Very Long Chain Polyunsaturated Fatty Acids via Minimal Codon Optimization of Two Key Biosynthetic Enzymes” (PLoS ONE, 2016).
